Source: US4548925A, “Antibiotic M43A, pharmaceutical composition and method of use” (Eli Lilly and Company, priority 1984, dated 1985)
≈ marks a conversion by molar mass, not a printed value.

Legend:
Staphylococcus aureus = assay: Experimental bacterial infection in mice, ED50; format: in vivo; conditions: subcutaneous, two doses, dose protecting 50% of animals
[1] = test system: Streptococcus faecium ATCC 9790; conditions: agar dilution, M43A phosphate salt, vancomycin free base
[2] = test system: Streptococcus sp. group D 9960; conditions: agar dilution, M43A phosphate salt, vancomycin free base
[3] = test system: Bacteroides melaninogenicus 1856/28; assay: Susceptibility of anaerobic isolates, agar-dilution MIC; format: cell-based; conditions: read after 24 hrs incubation
Procedure: (§1) . | ^a MIC's were determined by the agardilution method; endpoints were
(§2) read after 24hrs. incubation.

[4] = test system: Peptococcus asaccharolyticus 1302; assay: as above; format: cell-based; conditions: read after 24 hrs incubation
Procedure: as §1, §2

Bacteroides fragilis 111 = assay: as above; format: cell-based; conditions: read after 24 hrs incubation
Procedure: as §1, §2

[5] = test system: Eubacterium aerofaciens 1235; assay: as above; format: cell-based; conditions: read after 24 hrs incubation
Procedure: as §1, §2

Peptococcus prevoti 1281 = assay: as above; format: cell-based; conditions: read after 24 hrs incubation
Procedure: as §1, §2

[6] = test system: Bacteroides fragilis 1936B; assay: as above; format: cell-based; conditions: read after 24 hrs incubation
Procedure: as §1, §2

[7] = test system: Fusobacterium necrophorum 6054A; assay: as above; format: cell-based; conditions: read after 24 hrs incubation
Procedure: as §1, §2

[8] = test system: Peptostreptococcus intermedius 1264; assay: as above; format: cell-based; conditions: read after 24 hrs incubation
Procedure: as §1, §2

[9] = test system: Propionibacterium acnes 79; assay: as above; format: cell-based; conditions: read after 24 hrs incubation
Procedure: as §1, §2

[10] = test system: Peptostreptococcus anaerobius 1428; assay: as above; format: cell-based; conditions: read after 24 hrs incubation
Procedure: as §1, §2

[11] = test system: Bacteroides melaninogenicus 2736; assay: as above; format: cell-based; conditions: read after 24 hrs incubation
Procedure: as §1, §2

[12] = test system: Bacteroides fragilis 1877; assay: as above; format: cell-based; conditions: read after 24 hrs incubation
Procedure: as §1, §2

[13] = test system: Fusobacterium symbiosum 1470; assay: as above; format: cell-based; conditions: read after 24 hrs incubation
Procedure: as §1, §2

[14] = test system: Clostridium septicum 1128; assay: as above; format: cell-based; conditions: read after 24 hrs incubation
Procedure: as §1, §2

[15] = test system: Clostridium difficile 2994; assay: as above; format: cell-based; conditions: read after 24 hrs incubation
Procedure: as §1, §2

[16] = test system: Bacteroides thetaiotaomicron 1438; assay: as above; format: cell-based; conditions: read after 24 hrs incubation
Procedure: as §1, §2

[17] = test system: Bacteroides corrodens 1874; assay: as above; format: cell-based; conditions: read after 24 hrs incubation
Procedure: as §1, §2

[18] = test system: Bacteroides vulgatis 1211; assay: as above; format: cell-based; conditions: read after 24 hrs incubation
Procedure: as §1, §2

[19] = test system: Clostridium perfringens 81; format: cell-based; conditions: agar dilution, read after 24 hrs incubation
[20] = test system: Haemophilus influenzae 76; assay: In vitro MIC, standard agar-dilution assay; format: cell-based; conditions: M43A phosphate salt, vancomycin free base
Streptococcus pyogenes = assay: Experimental bacterial infection in mice, ED50; format: in vivo; conditions: subcutaneous, two doses, dose protecting 50% of animals
[21] = test system: Staphylococcus aureus NRRL B313; assay: In vitro MIC, standard agar-dilution assay; format: cell-based; conditions: M43A phosphate salt, vancomycin free base
Escherichia coli N10 = assay: In vitro MIC, standard agar-dilution assay; format: cell-based; conditions: M43A phosphate salt, vancomycin free base
[22] = test system: Haemophilus influenzae C.L.; assay: In vitro MIC, standard agar-dilution assay; format: cell-based; conditions: M43A phosphate salt, vancomycin free base
[23] = test system: Klebsiella pneumoniae X26; assay: In vitro MIC, standard agar-dilution assay; format: cell-based; conditions: M43A phosphate salt, vancomycin free base
Escherichia coli EC14 = assay: In vitro MIC, standard agar-dilution assay; format: cell-based; conditions: M43A phosphate salt, vancomycin free base
[24] = test system: Streptococcus pyogenes C203; assay: In vitro MIC, standard agar-dilution assay; format: cell-based; conditions: M43A phosphate salt, vancomycin free base
[25] = test system: Staphylococcus aureus X400; assay: In vitro MIC, standard agar-dilution assay; format: cell-based; conditions: M43A phosphate salt, vancomycin free base
[26] = test system: Klebsiella pneumoniae X68; assay: In vitro MIC, standard agar-dilution assay; format: cell-based; conditions: M43A phosphate salt, vancomycin free base
[27] = test system: Klebsiella pneumoniae KAE; assay: In vitro MIC, standard agar-dilution assay; format: cell-based; conditions: M43A phosphate salt, vancomycin free base
Escherichia coli TEM = assay: In vitro MIC, standard agar-dilution assay; format: cell-based; conditions: M43A phosphate salt, vancomycin free base
Streptococcus pneumoniae = assay: Experimental bacterial infection in mice, ED50; format: in vivo; conditions: subcutaneous, two doses, dose protecting 50% of animals
[28] = test system: Staphylococcus aureus V41; assay: In vitro MIC, standard agar-dilution assay; format: cell-based; conditions: M43A phosphate salt, vancomycin free base

Molecule CN[C@H](CC(C)C)C(=O)N[C@H]1C(=O)N[C@@H](CC(N)=O)C(=O)N[C@H]2C(=O)N[C@H]3C(=O)N[C@H](C(=O)N[C@H](C(=O)O)c4cc(O)cc(O)c4-c4cc3ccc4O)[C@H](O)c3ccc(c(Cl)c3)Oc3cc2cc(c3O[C@@H]2O[C@H](CO)[C@@H](O)[C@H](O)[C@H]2O[C@H]2C[C@](C)(N)[C@H](O)[C@H](C)O2)Oc2ccc(cc2Cl)[C@H]1O [Vancomycin] has an E50 (Staphylococcus aureus) of 1.62 mg/kg/2, an MIC [1] of 1 µg/mL and an MIC [2] of 4 µg/mL. For the same molecule, the MIC [3] was > 128 µg/mL, the MIC [4] was 2 µg/mL (≈ 1.38 µM) and the MIC (Bacteroides fragilis 111) was 64 µg/mL (≈ 44.2 µM). The MIC [5] was 16 µg/mL (≈ 11 µM), the MIC (Peptococcus prevoti 1281) was 2 µg/mL (≈ 1.38 µM) and the MIC [6] was 32 µg/mL (≈ 22.1 µM). The MIC [7] was 2 µg/mL (≈ 1.38 µM), the MIC [8] was 4 µg/mL (≈ 2.76 µM) and the MIC [9] was 2 µg/mL (≈ 1.38 µM). The MIC [10] was 2 µg/mL (≈ 1.38 µM), the MIC [11] was 8 µg/mL (≈ 5.52 µM) and the MIC [12] was 32 µg/mL (≈ 22.1 µM). It also gave an MIC [13] of 2 µg/mL (≈ 1.38 µM), an MIC [14] of 4 µg/mL (≈ 2.76 µM) and an MIC [15] of 2 µg/mL (≈ 1.38 µM). For the same molecule, the MIC [16] was 16 µg/mL (≈ 11 µM), the MIC [17] was 32 µg/mL (≈ 22.1 µM) and the MIC [18] was 16 µg/mL (≈ 11 µM). The MIC [19] was 1 µg/mL (≈ 0.69 µM), the MIC [20] was 32 µg/mL and the E50 (Streptococcus pyogenes) was 1.2 mg/kg/2. The MIC [21] was 1 µg/mL, the MIC (Escherichia coli N10) was > 128 µg/mL and the MIC [22] was 128 µg/mL. For the same molecule, the MIC [23] was > 128 µg/mL, the MIC (Escherichia coli EC14) was > 128 µg/mL and the MIC [24] was 1 µg/mL. The MIC [25] was 1 µg/mL, the MIC [26] was > 128 µg/mL and the MIC [27] was > 128 µg/mL. For the same molecule, the MIC (Escherichia coli TEM) was > 128 µg/mL, the E50 (Streptococcus pneumoniae) was 1.47 mg/kg/2 and the MIC [28] was 1 µg/mL.
